Experimental data as given in patent US9023789B2, “Amylin analogs and pharmaceutical compositions thereof” (Novo Nordisk A/S, priority 2012, dated 2015).
Numbered stars: 1 amine (or outer) side, 2 acyl side, 3 side chain; on linkers, the order of the positions; unused ones are H or OH. Bridge positions count the residues as written; N and C are the ends. Side chains are listed from the residue outwards. Peptide text beside a SMILES is read from it. * marks the point of attachment. C20 diacid = O=C(O)CCCCCCCCCCCCCCCCCCC(=O)*; γGlu = O=C(O)[C@H](CCC(=O)[*:2])N[*:1]; AEEA = NCCOCCOCC(=O)O

Columns and labels:
[1] = ASSAY (III) ThT fibrillation assay for physical stability; format: physicochemical
In short: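 Physical stability scored by ThT fluorescence (444 nm excitation, 485 nm emission) tracked every 20 min during 37 °C incubation with 960 rpm shaking, ThT at 1 μM final. Values are replicate means with SD at chosen times; HPLC against pramlintide standard gives initial and post-assay soluble concentrations.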

[2] = target: T1, rat amylin receptor (rat calcitonin receptor + rat RAMP 3) (Rattus norvegicus, UniProt P32214+Q9JJ73); assay: ASSAY (VI) binding to the rat amylin receptor; conditions: for IC50: binding to rat amylin receptor, read-out: rAmylin-R bind IC50
T1 construct: expressed in transfected cells; host or cells: BHK tk'ts 13 (transient, FuGENE 6), membranes
T1 sequence (P32214 25-479 isoform P32214-2 limits assumed): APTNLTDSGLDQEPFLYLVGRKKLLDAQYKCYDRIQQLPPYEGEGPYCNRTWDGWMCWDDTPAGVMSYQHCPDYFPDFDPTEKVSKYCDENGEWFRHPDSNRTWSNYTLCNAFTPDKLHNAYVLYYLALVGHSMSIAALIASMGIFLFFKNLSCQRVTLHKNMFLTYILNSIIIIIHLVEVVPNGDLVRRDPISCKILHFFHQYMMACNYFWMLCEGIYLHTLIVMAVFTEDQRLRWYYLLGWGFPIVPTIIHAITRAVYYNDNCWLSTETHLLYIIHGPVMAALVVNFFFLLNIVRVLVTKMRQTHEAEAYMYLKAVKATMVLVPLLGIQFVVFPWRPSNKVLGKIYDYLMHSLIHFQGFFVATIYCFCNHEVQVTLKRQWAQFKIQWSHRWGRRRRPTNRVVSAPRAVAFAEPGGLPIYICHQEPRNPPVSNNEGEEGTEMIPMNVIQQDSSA
T1 sequence (Q9JJ73 23-147 partner): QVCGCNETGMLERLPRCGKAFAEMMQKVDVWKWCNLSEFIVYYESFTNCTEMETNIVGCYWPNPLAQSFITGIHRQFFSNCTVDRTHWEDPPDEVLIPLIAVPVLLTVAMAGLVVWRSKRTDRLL
In short: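 The cell-membrane assay assessed binding at the rat amylin receptor. BHK tk′ts 13 cells were transfected transiently with rat calcitonin receptor, with FuGENE® 6 (Roche) as the transfection reagent, used per the manufacturer's recommendations. Approximately 48 hours after transfection the cells were harvested, and membranes were prepared for measuring binding.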

rat calcitonin receptor = target: T2, rat calcitonin receptor (Rattus norvegicus, UniProt P32214); assay: ASSAY (VIII) binding to the rat calcitonin receptor; conditions: Table 7, read-out: rCTR bind IC50
T2 construct: expressed in transfected cells; host or cells: BHK tk'ts 13 (transient, FuGENE 6), membranes
T2 sequence (P32214 25-479 isoform P32214-2 limits assumed): T1 sequence (P32214 25-479 isoform P32214-2 limits assumed)
In short: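 Receptor source: membranes from transiently transfected BHK tk′ts 13 cells expressing rat calcitonin receptor, collected roughly 48 hours after transfection.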

[3] = Table 7, rat binding selectivity, rCTR IC50 / rAmylin-R IC50
[4] = Table 7a (preferred compounds), rat binding selectivity, rCTR IC50 / rAmylin-R IC50
[5] = ratio of rCTR bind IC50 to rAmylin-R bind IC50

| SMILES | ThT pH 4.0 lag time (h) [1] [h] | IC50 ([2]; Table 7) [nM] | Ratio rCT/rAmylin binding [2, 3] | Ratio rCT/rAmylin binding [2, 4] | Ratio rCT/rAmylin binding [2, 5] | IC50 (rat calcitonin receptor) [nM] |
| --- | --- | --- | --- | --- | --- | --- |
| CC[C@H](C)[C@H](NC(=O)[C@H](C)NC(=O)CNC(=O)[C@H](Cc1ccccc1)NC(=O)[C@H](CC(N)=O)NC(=O)[C@@H]1CCCN1C(=O)[C@H](CO)NC(=O)[C@H](CO)NC(=O)[C@H](Cc1c[nH]cn1)NC(=O)[C@H](CCCNC(=N)N)NC(=O)[C@H](CC(C)C)NC(=O)[C@H](Cc1ccccc1)NC(=O)[C@H](CC(N)=O)NC(=O)[C@H](C)NC(=O)[C@H](CC(C)C)NC(=O)[C@H](CCCNC(=N)N)NC(=O)[C@H](CCC(N)=O)NC(=O)[C@@H](NC(=O)[C@H](C)NC(=O)[C@@H]1CSSC[C@H](NC(=O)[C@@H](N)CCCCNC(=O)COCCOCCNC(=O)CC[C@H](NC(=O)CCCCCCCCCCCCCCCCCCC(=O)O)C(=O)O)C(=O)N[C@@H](CC(N)=O)C(=O)N[C@@H]([C@@H](C)O)C(=O)N[C@@H](C)C(=O)N[C@@H]([C@@H](C)O)C(=O)N1)[C@@H](C)O)C(=O)N1CCC[C@H]1C(=O)N[C@@H](CO)C(=O)N[C@@H](CO)C(=O)N[C@H](C(=O)N[C@@H](CC(N)=O)C(=O)N[C@H](C(=O)NCC(=O)N[C@@H](CCCNC(=N)N)C(=O)N[C@@H](CC(N)=O)C(=O)N[C@H](C(=O)N[C@@H](Cc1ccc(O)cc1)C(N)=O)[C@@H](C)O)C(C)C)[C@@H](C)O [Example 78] (H-K([AEEA-γGlu-C20 diacid])CNTATCATQRLANFLRHSSPNFGAIPSSTNVGRNTY-NH2; disulfide 2-7 (inferred)) | 13 | 1.3 | 69.9 | 69.9 | 69.9 | 90.6 |
| CC[C@H](C)[C@H](NC(=O)[C@H](C)NC(=O)CNC(=O)[C@H](Cc1ccccc1)NC(=O)[C@H](CC(N)=O)NC(=O)[C@@H]1CCCN1C(=O)[C@H](CO)NC(=O)[C@H](CO)NC(=O)[C@H](Cc1c[nH]cn1)NC(=O)[C@H](CCCNC(=N)N)NC(=O)[C@H](CC(C)C)NC(=O)[C@H](Cc1ccccc1)NC(=O)[C@H](CC(N)=O)NC(=O)[C@H](C)NC(=O)[C@H](CC(C)C)NC(=O)[C@H](CCCNC(=N)N)NC(=O)[C@H](CCC(N)=O)NC(=O)[C@@H](NC(=O)[C@H](C)NC(=O)[C@@H]1CSSC[C@H](NC(=O)[C@@H](N)CCCCNC(=O)CC[C@H](NC(=O)CCCCCCCCCCCCCCCCCCC(=O)O)C(=O)O)C(=O)N[C@@H](CC(N)=O)C(=O)N[C@@H]([C@@H](C)O)C(=O)N[C@@H](C)C(=O)N[C@@H]([C@@H](C)O)C(=O)N1)[C@@H](C)O)C(=O)N1CCC[C@H]1C(=O)N[C@@H](CO)C(=O)N[C@@H](CO)C(=O)N[C@H](C(=O)N[C@@H](CC(N)=O)C(=O)N[C@H](C(=O)NCC(=O)N[C@@H](CCCNC(=N)N)C(=O)N[C@@H](CC(N)=O)C(=O)N[C@H](C(=O)N[C@@H](Cc1ccc(O)cc1)C(N)=O)[C@@H](C)O)C(C)C)[C@@H](C)O [Example 79] (H-K([γGlu-C20 diacid])CNTATCATQRLANFLRHSSPNFGAIPSSTNVGRNTY-NH2; disulfide 2-7 (inferred); N-terminus assumed) | 21 | 1.65 | 21.5 | 21.5 | 21.5 | 35.5 |
| CC[C@H](C)[C@H](NC(=O)[C@H](C)NC(=O)CNC(=O)[C@H](Cc1ccccc1)NC(=O)[C@H](CC(N)=O)NC(=O)[C@@H]1CCCN1C(=O)[C@H](CO)NC(=O)[C@H](CO)NC(=O)[C@H](Cc1c[nH]cn1)NC(=O)[C@H](CCCNC(=N)N)NC(=O)[C@H](CC(C)C)NC(=O)[C@H](Cc1ccccc1)NC(=O)[C@H](CCCNC(=N)N)NC(=O)[C@H](C)NC(=O)[C@H](CC(C)C)NC(=O)[C@H](CCCNC(=N)N)NC(=O)[C@H](CCC(N)=O)NC(=O)[C@@H](NC(=O)[C@H](C)NC(=O)[C@@H]1CSSC[C@H](NC(=O)[C@@H](N)CCCCNC(=O)COCCOCCNC(=O)CC[C@H](NC(=O)CCCCCCCCCCCCCCCCCCC(=O)O)C(=O)O)C(=O)N[C@@H](CC(N)=O)C(=O)N[C@@H]([C@@H](C)O)C(=O)N[C@@H](C)C(=O)N[C@@H]([C@@H](C)O)C(=O)N1)[C@@H](C)O)C(=O)N1CCC[C@H]1C(=O)N[C@@H](CO)C(=O)N[C@@H](CO)C(=O)N[C@H](C(=O)N[C@@H](CC(N)=O)C(=O)N[C@H](C(=O)NCC(=O)N[C@@H](CO)C(=O)N[C@@H](CC(N)=O)C(=O)N[C@H](C(=O)N[C@@H](Cc1ccc(O)cc1)C(N)=O)[C@@H](C)O)C(C)C)[C@@H](C)O [Example 82] (H-K([AEEA-γGlu-C20 diacid])CNTATCATQRLARFLRHSSPNFGAIPSSTNVGSNTY-NH2; disulfide 2-7; N-terminus assumed) | 12 | 1.64 | 87.0 | 87.0 | 87.0 | 143 |
| CC[C@H](C)[C@H](NC(=O)[C@H](C)NC(=O)CNC(=O)[C@H](Cc1ccccc1)NC(=O)[C@H](CC(N)=O)NC(=O)[C@@H]1CCCN1C(=O)[C@H](CO)NC(=O)[C@H](CO)NC(=O)[C@H](Cc1c[nH]cn1)NC(=O)[C@H](CCCNC(=N)N)NC(=O)[C@H](CC(C)C)NC(=O)[C@H](Cc1ccccc1)NC(=O)[C@H](CCCNC(=N)N)NC(=O)[C@H](C)NC(=O)[C@H](CC(C)C)NC(=O)[C@H](CCCNC(=N)N)NC(=O)[C@H](CCC(N)=O)NC(=O)[C@@H](NC(=O)[C@H](C)NC(=O)[C@@H]1CSSC[C@H](NC(=O)[C@@H](N)CCCCNC(=O)CC[C@H](NC(=O)CCCCCCCCCCCCCCCCCCC(=O)O)C(=O)O)C(=O)N[C@@H](CC(N)=O)C(=O)N[C@@H]([C@@H](C)O)C(=O)N[C@@H](C)C(=O)N[C@@H]([C@@H](C)O)C(=O)N1)[C@@H](C)O)C(=O)N1CCC[C@H]1C(=O)N[C@@H](CO)C(=O)N[C@@H](CO)C(=O)N[C@H](C(=O)N[C@@H](CC(N)=O)C(=O)N[C@H](C(=O)NCC(=O)N[C@@H](CO)C(=O)N[C@@H](CC(N)=O)C(=O)N[C@H](C(=O)N[C@@H](Cc1ccc(O)cc1)C(N)=O)[C@@H](C)O)C(C)C)[C@@H](C)O [Example 83] | 12 | 2.83 | 49.7 | 49.7 | 49.7 | 140 |
| CC[C@H](C)[C@H](NC(=O)[C@H](C)NC(=O)CNC(=O)[C@H](Cc1ccccc1)NC(=O)[C@H](CC(N)=O)NC(=O)[C@@H]1CCCN1C(=O)[C@H](CO)NC(=O)[C@H](CO)NC(=O)[C@H](Cc1c[nH]cn1)NC(=O)[C@H](CCCNC(=N)N)NC(=O)[C@H](CC(C)C)NC(=O)[C@H](Cc1ccccc1)NC(=O)[C@H](Cc1c[nH]cn1)NC(=O)[C@H](C)NC(=O)[C@H](CC(C)C)NC(=O)[C@H](CCCNC(=N)N)NC(=O)[C@H](CCC(N)=O)NC(=O)[C@@H](NC(=O)[C@H](C)NC(=O)[C@@H]1CSSC[C@H](NC(=O)[C@@H](N)CCCCNC(=O)COCCOCCNC(=O)CCCCCCCCCCCCCCCCCCC(=O)O)C(=O)N[C@@H](CC(N)=O)C(=O)N[C@@H]([C@@H](C)O)C(=O)N[C@@H](C)C(=O)N[C@@H]([C@@H](C)O)C(=O)N1)[C@@H](C)O)C(=O)N1CCC[C@H]1C(=O)N[C@@H](CO)C(=O)N[C@@H](CO)C(=O)N[C@H](C(=O)N[C@@H](CC(N)=O)C(=O)N[C@H](C(=O)NCC(=O)N[C@@H](CO)C(=O)N[C@@H](CC(N)=O)C(=O)N[C@H](C(=O)N[C@@H](Cc1ccc(O)cc1)C(N)=O)[C@@H](C)O)C(C)C)[C@@H](C)O [Example 90] | 10 | 0.246 | 74.1 | 74.1 | 74.1 | 18.2 |
